Assay results from patent publication US20240148723A1, “MYCOBACTERIUM TUBERCULOSIS COMPOSITIONS AND METHODS” (priority 2021, published 2024).
Converted amounts (≈) assume the structure as drawn.

These molecules were tested on M. tuberculosis. Settings: pH 6.8.
Type: cell-based, Mycobacterium tuberculosis

| SMILES | MIC in the media 7H9 [µg/mL] | MIC in the media L-Ala [µg/mL] | MIC in the media SBA [µg/mL] | MIC in the media SLac [µg/mL] |
| --- | --- | --- | --- | --- |
| Cn1ccc(=Nc2ccc(NC(=O)c3ccc(N=c4ccn(C)c5ccc([N+](=O)[O-])cc45)cc3)cc2)cc1 [compound 260594] | ≥ 0.81 | 0.81 (≈ 1.61 µM) | 1.61 (≈ 3.19 µM) | 0.40 (≈ 0.793 µM) |
| Nc1ccc(N=Nc2ccc(O)cc2)c(N)n1 [compound 108235] | ≥ 22.92 | 11.46 (≈ 50 µM) | 11.46 (≈ 50 µM) | 5.73 (≈ 25 µM) |
| COc1ccc(C(=O)c2ccccc2O)c(O)c1 [compound 56769] | ≥ 97.70 | 24.42 (≈ 100 µM) | 24.42 (≈ 100 µM) | 0.76 (≈ 3.11 µM) |
| COc1cccc2[nH]c(-c3ccccn3)nc12 [compound 320656] | ≥ 45.06 | 5.63 (≈ 25 µM) | 11.27 (≈ 50 µM) | 1.41 (≈ 6.26 µM) |
| CCOc1ccc(Nc2c3ccccc3nc3ccccc23)cc1 [compound 30205] | ≥ 1.97 | 1.97 (≈ 6.27 µM) | 3.93 (≈ 12.5 µM) | 1.97 (≈ 6.27 µM) |
| Cc1nc(C(=O)N=C(N)N)c(N)nc1-c1ccccc1 [compound 614911] | ≥ 108.12 | 13.52 (≈ 50 µM) | 27.03 (≈ 100 µM) | 27.03 (≈ 100 µM) |
| CSc1ccc2c(c1)C(N1CCN(C)CC1)Cc1ccccc1S2.O=C(O)/C=C\C(=O)O (stereo not drawn) [compound 281816] | ≥ 11.82 | 2.95 | 2.95 | 2.95 |
| Cc1ccc(C)c(N2CCN(c3ccncc3N)CC2)c1 [compound 147866] | ≥ 14.12 | 14.12 (≈ 50 µM) | 7.06 (≈ 25 µM) | 1.77 (≈ 6.27 µM) |
| Oc1ccc(Cc2ccccc2Cl)c(O)c1 [compound 11149] | ≥ 23.47 | 5.87 (≈ 25 µM) | 2.93 (≈ 12.5 µM) | 1.47 (≈ 6.26 µM) |
| O=C(Nc1ccccc1)c1cc(Cl)ccc1O [compound 402600] | ≥ 24.77 | 1.55 (≈ 6.26 µM) | 1.55 (≈ 6.26 µM) | 0.79 (≈ 3.19 µM) |
| COc1cc(N)c2ncccc2c1 [compound 13573] | ≥ 8.71 | 8.71 (≈ 50 µM) | 8.71 (≈ 50 µM) | 17.42 (≈ 100 µM) |
| NC(=O)c1cccc([N+](=O)[O-])c1 [compound 37327] | ≥ 66.44 | 66.44 (≈ 400 µM) | 33.22 (≈ 200 µM) | 66.44 (≈ 400 µM) |
| CN(CC(=O)O)Cc1c(O)c(Cl)cc(Cl)c1Cl [compound 45114] | ≥ 119.40 | 29.85 (≈ 100 µM) | 14.93 (≈ 50 µM) | 3.73 (≈ 12.5 µM) |
| NC(=O)c1ccccc1N [compound 38768] | ≥ 54.48 | 54.48 (≈ 400 µM) | 54.48 (≈ 400 µM) | 54.48 (≈ 400 µM) |
| CN(C)c1ccc(N=Nc2ccccn2)cc1 [compound 9358] | ≥ 22.63 | 5.66 (≈ 25 µM) | 1.41 (≈ 6.23 µM) | 1.41 (≈ 6.23 µM) |
| CCCCCc1cc(O)cc2c1Oc1cc(O)cc(C(=O)CCCC)c1C(=O)O2 [compound 31867] | ≥ 39.84 | 4.98 (≈ 12.5 µM) | 2.49 (≈ 6.25 µM) | 0.64 (≈ 1.61 µM) |
| CCOC(=O)c1cccc([N+](=O)[O-])c1 [compound 32740] | ≥ 78.08 | 2.44 (≈ 12.5 µM) | 4.88 (≈ 25 µM) | 2.44 (≈ 12.5 µM) |
| COC(C(=O)C(O)C(C)O)C1Cc2cc3cc(OC4CC(OC(C)=O)C(OC5CC(O)C(OC)C(C)O5)C(C)O4)cc(O)c3c(O)c2C(=O)C1OC1CC(OC2CC(OC3CC(C)(O)C(OC(=O)C(C)C)C(C)O3)C(O)C(C)O2)C(O)C(C)O1 (stereo not drawn) [compound 38270] | ≥ 59.87 | 7.48 (≈ 6.25 µM) | 3.83 (≈ 3.2 µM) | 3.83 (≈ 3.2 µM) |
| O=c1[nH]c(=S)[nH]cc1Oc1ccc(Cl)cc1Cl [compound 73753] | ≥ 115.66 | 14.46 (≈ 50 µM) | 14.46 (≈ 50 µM) | 1.81 (≈ 6.26 µM) |
| C=C1C(=O)OC2CC1C(OC(C)=O)C/C(C)=C/CC/C(C)=C\CCC2(C)O (stereo not drawn) [compound 46728] | ≥ 75.30 | 37.65 (≈ 100 µM) | 9.41 (≈ 25 µM) | 4.71 (≈ 12.5 µM) |
| CCOC(=O)c1ccc([N+](=O)[O-])cc1 [compound 6763] | ≥ 78.08 | 9.76 (≈ 50 µM) | 4.88 (≈ 25 µM) | 4.88 (≈ 25 µM) |
